14 molecules from patent US20240277795A1, “INHIBITORS OF CYSTEINE PROTEASES AND METHODS OF USE THEREOF” (Pardes Biosciences, Inc., priority 2021, published 2024) can be followed below.

Each structure is given as a SMILES string. Read-outs that look alike come from different tables or passages of the source.

One experiment has as its target SARS-COV2 Mpro (Severe acute respiratory syndrome coronavirus 2, UniProt P0DTD1). Put plainly: COVID-19 (nCoV-2019, SARS-CoV2) Mpro enzymatic assay. Type of experiment: biochemical. As to conditions: read-out: COVID-19 Mpro IC50. The protocol: Compounds were assayed using standard methods to assess compound activity and IC50. As an exemplary for assessment of the SARS-COV2 Mpro, the C-His6-tagged Mpro (NC_045512) was cloned, expressed in E. coli and purified. The assay buffer contained 20 mM of Tris-HCl (pH 7.3), 100 mM of NaCl, 1 mM of EDTA, 5 mM of TCEP and 0.1% BSA. The final concentrations of the Mpro protein and substrate were 25 nM and 25 μM, respectively, in the Mpro enzymatic assay.
The compounds were added to an assay plate. For 100% inhibition control (HPE, hundred percent effect), 1 μM GC376 was added.
(§1) IC50 values of compounds were calculated with the GraphPad Prism software using the nonlinear regression model of log(inhibitor) vs. response—Variable slope (four parameters). The inhibition activity was calculated using the formula below, IC50 values is calculated using the Inhibition % data.
[formula] • #HEP: Hundred percent effect controls. […] Containing enzyme+substrate, no compound. • Sample: Compound activity testing wells. Containing compound+enzyme+substrate. • BG: Compound background control wells. Containing compound+substrate, no enzyme.

A further experiment deals with 229E Mpro (Human coronavirus 229E, UniProt P0C6X1). Put plainly: 229E Mpro enzymatic assay. The class given is biochemical, HCoV 229E. The protocol:
(§2) Compounds were assayed using standard methods to assess compound activity and IC50. As an exemplary for assessment of the SARS-COV2 Mpro, the C-His6-tagged Mpro (NC_045512) was cloned, expressed in E. coli and purified. The assay buffer contained 20 mM of Tris-HCl (pH 7.3), 100 mM of NaCl, 1 mM of EDTA, 5 mM of TCEP and 0.1% BSA. The final concentrations of the Mpro protein and substrate were 25 nM and 25 μM, respectively, in the Mpro enzymatic assay. The Km of the Mpro substrate for the protease was 13.5 μM.
(§3) The compounds were added to an assay plate. For 100% inhibition control (HPE, hundred percent effect), 1 μM GC376 was added. For no inhibition control (ZPE, zero percent effect), no compound was added.
as §1
(§4) [formula] • #HEP: Hundred percent effect controls. Containing substrate+enzyme+1 μM GC376. • ZPE: Zero percent effective controls. Containing enzyme+substrate, no compound. • Sample: Compound activity testing wells. Containing compound+enzyme+substrate. • BG: Compound background control wells. Containing compound+substrate, no enzyme.

The next experiment addresses OC43 Mpro (Human coronavirus OC43, UniProt P0C6X6). Put plainly: OC43 Mpro enzymatic assay. The class given is biochemical, HCoV OC43. The protocol: as §2, §3, §1, §4

Usually IC50 stands for the concentration that inhibits the measured activity by half.

229E Mpro, sequence (P0C6X1 2966-3267): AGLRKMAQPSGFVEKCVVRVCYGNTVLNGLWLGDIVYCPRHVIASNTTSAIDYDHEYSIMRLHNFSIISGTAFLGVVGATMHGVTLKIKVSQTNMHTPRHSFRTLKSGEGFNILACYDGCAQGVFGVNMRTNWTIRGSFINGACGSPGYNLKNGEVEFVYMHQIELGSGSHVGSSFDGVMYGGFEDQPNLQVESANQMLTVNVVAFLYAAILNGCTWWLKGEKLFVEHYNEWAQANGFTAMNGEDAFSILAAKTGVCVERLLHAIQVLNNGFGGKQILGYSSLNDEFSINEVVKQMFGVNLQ
OC43 Mpro, sequence (P0C6X6 3247-3549): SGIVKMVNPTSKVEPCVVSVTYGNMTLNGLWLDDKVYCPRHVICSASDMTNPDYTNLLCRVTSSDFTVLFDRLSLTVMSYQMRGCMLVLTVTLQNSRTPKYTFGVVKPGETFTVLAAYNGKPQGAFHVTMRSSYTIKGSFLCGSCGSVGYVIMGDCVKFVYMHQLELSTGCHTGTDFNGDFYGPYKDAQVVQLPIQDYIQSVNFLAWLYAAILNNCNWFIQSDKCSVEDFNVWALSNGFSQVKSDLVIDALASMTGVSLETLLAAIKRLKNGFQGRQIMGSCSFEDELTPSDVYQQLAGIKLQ

Turning to `C[C@@H](OC(C)(C)C)[C@H](NC(=O)C1(C(F)(F)F)CC1)C(=O)N1C[C@H]2[C@@H]([C@H]1C(=O)N[C@H](C#N)C[C@@H]1CC(C)(C)NC1=O)C2(C)C` [Compound 295, (1R,2S,5S)-3-[(2S,3R)-3-tert-butoxy-2-[[1-(trifluoromethyl)cyclopropanecarbonyl]amino]butanoyl]-N-[(1S)-1-cyano-2-[(3R)-5,5-dimethyl-2-oxo-pyrrolidin-3-yl]ethyl]-6,6-dimethyl-3-azabicyclo[3.1.0]hexane-2-carboxamide], the concentration for half-maximal inhibition (IC50) on SARS-COV2 Mpro (Table 5), on 229E Mpro (Table 5) and against OC43 Mpro (Table 5) was less than 2 µM in each case.

Regarding `C[C@@H](OC1CCC1)[C@H](NC(=O)C(F)(F)F)C(=O)N1C[C@H]2[C@@H]([C@H]1C(=O)N[C@H](C#N)C[C@@H]1CC(C)(C)NC1=O)C2(C)C` [Compound 307, (1R,2S,5S)—N-[(1S)-1-cyano-2-[(3R)-5,5-dimethyl-2-oxo-pyrrolidin-3-yl]ethyl]-3-[(2S,3R)-3-(cyclobutoxy)-2-[(2,2,2-trifluoroacetyl)amino]butanoyl]-6,6-dimethyl-3-azabicyclo[3.1.0]hexane-2-carboxamide], the IC50 on SARS-COV2 Mpro (Table 3), against 229E Mpro (Table 3) and against OC43 Mpro (Table 3) was less than 2 µM in each case.

With `C[C@@H](OC1(C)CCC1)[C@H](NC(=O)C(F)(F)F)C(=O)N1C[C@H]2[C@@H]([C@H]1C(=O)N[C@H](C#N)C[C@@H]1CC(C)(C)NC1=O)C2(C)C` [Compound 308, (1R,2S,5S)—N-[(1S)-1-cyano-2-[(3R)-5,5-dimethyl-2-oxo-pyrrolidin-3-yl]ethyl]-6,6-dimethyl-3-[(2S,3R)-3-(1-methylcyclobutoxy)-2-[(2,2,2-trifluoroacetyl)amino]butanoyl]-3-azabicyclo[3.1.0]hexane-2-carboxamide], the IC50 at SARS-COV2 Mpro (Table 3), against 229E Mpro (Table 3) and against OC43 Mpro (Table 3) was less than 2 µM throughout.

With `C[C@@H](OCC(F)(F)F)[C@H](NC(=O)C(F)(F)F)C(=O)N1C[C@H]2[C@@H]([C@H]1C(=O)N[C@H](C#N)C[C@@H]1CC(C)(C)NC1=O)C2(C)C` [Compound 312, (1R,2S,5S)—N-[(1S)-1-cyano-2-[(3R)-5,5-dimethyl-2-oxo-pyrrolidin-3-yl]ethyl]-6,6-dimethyl-3-[(2S,3R)-2-[(2,2,2-trifluoroacetyl)amino]-3-(2,2,2-trifluoroethoxy)butanoyl]-3-azabicyclo[3.1.0]hexane-2-carboxamide], the IC50 on SARS-COV2 Mpro (Table 5), on 229E Mpro (Table 5) and against OC43 Mpro (Table 5) was less than 2 µM each time.

As to `C[C@@H](OC1(C)CCC1)[C@H](NC(=O)C(F)(F)F)C(=O)N1C[C@H]2[C@@H]([C@H]1C(=O)N[C@H](C#N)C[C@@H]1CC3(CC3)NC1=O)C2(C)C` [Compound 314, (1R,2S,5S)—N-[(1S)-1-cyan-2-[(6R)-5-oxo-4-azaspiro[2.4]heptan-6-yl]ethyl]-6,6-dimethyl-3-[(2S,3R)-3-(1-methylcyclobutoxy)-2-[(2,2,2-trifluoroacetyl)amino]butanoyl]-3-azabicyclo[3.1.0]hexane-2-carboxamide], the IC50 on SARS-COV2 Mpro (Table 5), on 229E Mpro (Table 5) and on OC43 Mpro (Table 5) was less than 2 µM throughout.

With `C[C@@H](OC1(C)CC1)[C@H](NC(=O)C(F)(F)F)C(=O)N1C[C@H]2[C@@H]([C@H]1C(=O)N[C@H](C#N)C[C@@H]1CC3(CC3)NC1=O)C2(C)C` [Compound 315, (1R,2S,5S)—N-[(1S)-1-cyan-2-[(6R)-5-oxo-4-azaspiro[2.4]heptan-6-yl]ethyl]-6,6-dimethyl-3-[(2S,3R)-3-(1-methylcyclopropoxy)-2-[(2,2,2-trifluoroacetyl)amino]butanoyl]-3-azabicyclo[3.1.0]hexane-2-carboxamide], the IC50 on SARS-COV2 Mpro (Table 3), against 229E Mpro (Table 3) and on OC43 Mpro (Table 3) was less than 2 µM in each case.

For the molecule `CC1(C)C[C@@H](C[C@@H](C#N)NC(=O)[C@@H]2[C@@H]3[C@H](CN2C(=O)C2(NC(=O)C(F)(F)F)CCC2)C3(C)C)C(=O)N1` [Compound 316, (1R,2S,5S)—N-[(1S)-1-cyano-2-[(3R)-5,5-dimethyl-2-oxo-pyrrolidin-3-yl]ethyl]-6,6-dimethyl-3-[1-[(2,2,2-trifluoroacetyl)amino]cyclobutanecarbonyl]-3-azabicyclo[3.1.0]hexane-2-carboxamide], the IC50 at SARS-COV2 Mpro (Table 3) was less than 2 µM; against 229E Mpro (Table 3), more than 30 µM; on OC43 Mpro (Table 3), 10 to 30 µM.

With `C[C@@H](OCC(F)(F)F)[C@H](NC(=O)C(F)(F)F)C(=O)N1C[C@H]2[C@@H]([C@H]1C(=O)N[C@H](C#N)C[C@@H]1CC3(CC3)NC1=O)C2(C)C` [Compound 319, (1R,2S,5S)—N-[(1S)-1-cyan-2-[(6R)-5-oxo-4-azaspiro[2.4]heptan-6-yl]ethyl]-6,6-dimethyl-3-[(2S,3R)-2-[(2,2,2-trifluoroacetyl)amino]-3-(2,2,2-trifluoroethoxy)butanoyl]-3-azabicyclo[3.1.0]hexane-2-carboxamide], the IC50 at SARS-COV2 Mpro (Table 5), against 229E Mpro (Table 5) and at OC43 Mpro (Table 5) was less than 2 µM each time.

With `C[C@@H](OC1(C2CC2)CC1)[C@H](NC(=O)C(F)(F)F)C(=O)N1C[C@H]2[C@@H]([C@H]1C(=O)N[C@H](C#N)C[C@@H]1CC(C)(C)NC1=O)C2(C)C` [Compound 324, (1R,2S,5S)—N-[(1S)-1-cyano-2-[(3R)-5,5-dimethyl-2-oxo-pyrrolidin-3-yl]ethyl]-3-[(2S,3R)-3-(1-cyclopropylcyclopropoxy)-2-[(2,2,2-trifluoroacetyl)amino]butanoyl]-6,6-dimethyl-3-azabicyclo[3.1.0]hexane-2-carboxamide], the IC50 on SARS-COV2 Mpro (Table 3), on 229E Mpro (Table 3) and on OC43 Mpro (Table 3) was less than 2 µM each time.

In the case of `C[C@@H](OC1CC1)[C@H](NC(=O)C(F)(F)F)C(=O)N1C[C@H]2[C@@H]([C@H]1C(=O)N[C@H](C#N)C[C@@H]1CC3(CC3)NC1=O)C2(C)C` [Compound 326, (1R,2S,5S)—N-[(1S)-1-cyan-2-[(6R)-5-oxo-4-azaspiro[2.4]heptan-6-yl]ethyl]-3-[(2S,3R)-3-(cyclopropoxy)-2-[(2,2,2-trifluoroacetyl)amino]butanoyl]-6,6-dimethyl-3-azabicyclo[3.1.0]hexane-2-carboxamide], the IC50 on SARS-COV2 Mpro (Table 5), on 229E Mpro (Table 5) and against OC43 Mpro (Table 5) was less than 2 µM each time.

`C[C@@H](OC1CCC1)[C@H](NC(=O)C(F)(F)F)C(=O)N1C[C@H]2[C@@H]([C@H]1C(=O)N[C@H](C#N)C[C@@H]1CC3(CC3)NC1=O)C2(C)C` [Compound 327, (1R,2S,5S)—N-[(1S)-1-cyan-2-[(6R)-5-oxo-4-azaspiro[2.4]heptan-6-yl]ethyl]-3-[(2S,3R)-3-(cyclobutoxy)-2-[(2,2,2-trifluoroacetyl)amino]butanoyl]-6,6-dimethyl-3-azabicyclo[3.1.0]hexane-2-carboxamide]: the IC50 at SARS-COV2 Mpro (Table 5), against 229E Mpro (Table 5) and against OC43 Mpro (Table 5) was less than 2 µM each time.

As for `CC1(C)C[C@@H](C[C@@H](C#N)NC(=O)[C@@H]2[C@@H]3[C@H](CN2C(=O)[C@@H](NC(=O)C(F)(F)F)C2CCC(C)(C)O2)C3(C)C)C(=O)N1` (stereo partly drawn) [Compound 328], the IC50 at SARS-COV2 Mpro (Table 3), at 229E Mpro (Table 3) and on OC43 Mpro (Table 3) was less than 2 µM each time.

For `C[C@@H](OC1CC(F)(F)C1)[C@H](NC(=O)C(F)(F)F)C(=O)N1C[C@H]2[C@@H]([C@H]1C(=O)N[C@H](C#N)C[C@@H]1CC(C)(C)NC1=O)C2(C)C` [Compound 330, (1R,2S,5S)—N-[(1S)-1-cyano-2-[(3R)-5,5-dimethyl-2-oxo-pyrrolidin-3-yl]ethyl]-3-[(2S,3R)-3-(3,3-difluorocyclobutoxy)-2-[(2,2,2-trifluoroacetyl)amino]butanoyl]-6,6-dimethyl-3-azabicyclo[3.1.0]hexane-2-carboxamide], the IC50 on SARS-COV2 Mpro (Table 3), at 229E Mpro (Table 3) and against OC43 Mpro (Table 3) was less than 2 µM each time.

Turning to `C[C@@H](OC1(C2CC2)CC1)[C@H](NC(=O)C(F)(F)F)C(=O)N1C[C@H]2[C@@H]([C@H]1C(=O)N[C@H](C#N)C[C@@H]1CC3(CC3)NC1=O)C2(C)C` [Compound 331, (1R,2S,5S)—N-[(1S)-1-cyano-2-[(6R)-5-oxo-4-azaspiro[2.4]heptan-6-yl]ethyl]-3-[(2S,3R)-3-(1-cyclopropylcyclopropoxy)-2-[(2,2,2-trifluoroacetyl)amino]butanoyl]-6,6-dimethyl-3-azabicyclo[3.1.0]hexane-2-carboxamide], the IC50 at SARS-COV2 Mpro (Table 3), against 229E Mpro (Table 3) and against OC43 Mpro (Table 3) was less than 2 µM throughout.
